Tests used:
recombinant hAQP4 (AQP4) = recombinant hAQP4 (AQP4) (Homo sapiens, UniProt P55087); test: biochemical
[1] = target: T1, A2AR (human A2A receptor) (Homo sapiens, UniProt P29274); test: intrinsic tryptophan fluorescence quenching; format: binding
[2] = target: T1, A2AR (human A2A receptor); test: displacement of [3H]ZM-241385 from crude Pichia membranes; format: binding

T1 sequence (P29274 whole entry): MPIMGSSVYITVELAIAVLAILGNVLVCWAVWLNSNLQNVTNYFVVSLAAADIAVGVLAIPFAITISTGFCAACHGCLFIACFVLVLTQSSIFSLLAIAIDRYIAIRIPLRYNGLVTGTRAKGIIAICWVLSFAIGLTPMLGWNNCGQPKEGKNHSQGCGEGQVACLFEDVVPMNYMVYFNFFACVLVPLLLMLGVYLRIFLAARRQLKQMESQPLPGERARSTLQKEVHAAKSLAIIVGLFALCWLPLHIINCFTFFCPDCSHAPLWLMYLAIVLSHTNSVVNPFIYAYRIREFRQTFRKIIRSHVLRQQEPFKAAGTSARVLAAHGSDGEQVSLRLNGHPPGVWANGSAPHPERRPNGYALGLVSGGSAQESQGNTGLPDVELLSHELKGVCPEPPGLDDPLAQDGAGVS
Chain of recombinant hAQP4 (AQP4) (P55087 whole entry): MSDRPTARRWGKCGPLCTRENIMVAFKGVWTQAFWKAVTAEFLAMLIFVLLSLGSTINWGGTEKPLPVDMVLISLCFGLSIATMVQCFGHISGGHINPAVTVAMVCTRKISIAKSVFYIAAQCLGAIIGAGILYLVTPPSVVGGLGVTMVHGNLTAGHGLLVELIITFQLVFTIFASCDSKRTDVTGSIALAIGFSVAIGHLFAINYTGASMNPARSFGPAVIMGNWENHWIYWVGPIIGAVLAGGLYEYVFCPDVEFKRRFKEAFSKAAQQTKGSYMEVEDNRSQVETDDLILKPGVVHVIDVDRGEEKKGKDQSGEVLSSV

Kd (recombinant hAQP4 (AQP4)) [µM]	Kd [1] [µM]	IC50 [2] [µM]	Compound
17 ± 3.1	–	–	O=C(Nc1cc(C(F)(F)F)cc(C(F)(F)F)c1)c1cc(Cl)ccc1O [AER-270, N-(3,5-bis(trifluoromethyl)phenyl)-5-chloro-2-hydroxybenzamide]
–	54	20	O=C(Nc1nncs1)c1cccnc1 [TGN-020, N-1,3,4-thiadiazol-2-yl-3-pyridinecarboxamide]

From article doi:10.1101/2024.12.04.625365v1 (biorxiv, 2024)
